According to the supplement of paper PMC11451515:

Key:
Settings in all cases: 48 h
P12-Ichikawa [1] = test: AUC of viability dose-response curve (% viability x log10 dose units); higher = less sensitive
Method in brief: (§1)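 Leukemia cells adapted to each medium were seeded at 500 or 1000 cells/well in 1536-well plates and dosed with library compounds in DMSO at 11 threefold doses from 47 μM to 0.79 nM for 48 h at 37°C. CellTiter-Glo One luminescence was normalised per plate to DMSO and cell-free wells, then fitted with a four-parameter log-logistic model over log10 doses. Area under the curve was taken from this fit by the trapezoidal rule, with curves above full viability scaled and curves failing quality control removed.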

SEM cells [2] = test: as above
Method in brief: as §1

NOMO1 [3] = test: as above
Method in brief: as §1

P12-Ichikawa [4] = test: cell viability relative to DMSO control; higher = less cytotoxic
Method in brief: (§2)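 NOMO1 or SEM (500 cells/well) or P12-Ichikawa (1000 cells/well) leukemia cells were adapted for at least four passages in each medium. They were seeded in 1536-well plates (5 μl) and pin-dosed with library compounds in DMSO over an 11-point threefold series, 47 μM to 0.79 nM. CellTiter-Glo One luminescence was read after 48 h at 37°C. Viability is the per-plate percentage relative to DMSO wells, with cell-free wells as background.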

SEM cells [5] = test: as above
Method in brief: as §2

NOMO1 [6] = test: as above
Method in brief: as §2

N[S+]([O-])(=O)C1=CC=C(NC/2=C/C(=O)C3=CC=CC=C3C2=O)C=C1
AUC of viability dose-response curve
Settings	NOMO1 [3]	P12-Ichikawa [1]	SEM cells [2]
HPLM + 10% dialyzed FBS	446	464	448
RPMI 5 mM glucose + 10% FBS	465	467	399
RPMI 5 mM glucose + 10% dialyzed FBS	461	459	436

cell viability [%]
Settings	NOMO1 [6]	P12-Ichikawa [4]	SEM cells [5]
HPLM + 10% dialyzed FBS, 0.000781 µM	100	102	97.3
HPLM + 10% dialyzed FBS, 0.00234 µM	126	115	106
HPLM + 10% dialyzed FBS, 0.00702 µM	111	119	109
HPLM + 10% dialyzed FBS, 0.0211 µM	132	114	108
HPLM + 10% dialyzed FBS, 0.0632 µM	119	129	115
HPLM + 10% dialyzed FBS, 0.19 µM	121	120	110
HPLM + 10% dialyzed FBS, 0.569 µM	134	123	123
HPLM + 10% dialyzed FBS, 1.71 µM	111	118	110
HPLM + 10% dialyzed FBS, 5.12 µM	93.2	117	82.6
HPLM + 10% dialyzed FBS, 15.4 µM	100	118	97.8
HPLM + 10% dialyzed FBS, 46.1 µM	85.4	115	71.3
RPMI 5 mM glucose + 10% FBS, 0.000781 µM	121	110	96.2
RPMI 5 mM glucose + 10% FBS, 0.00234 µM	123	112	103
RPMI 5 mM glucose + 10% FBS, 0.00702 µM	131	108	99.4
RPMI 5 mM glucose + 10% FBS, 0.0211 µM	151	112	98.6
RPMI 5 mM glucose + 10% FBS, 0.0632 µM	131	112	87.5
RPMI 5 mM glucose + 10% FBS, 0.19 µM	147	124	83.9
RPMI 5 mM glucose + 10% FBS, 0.569 µM	129	125	92.2
RPMI 5 mM glucose + 10% FBS, 1.71 µM	132	126	92.5
RPMI 5 mM glucose + 10% FBS, 5.12 µM	126	111	53.4
RPMI 5 mM glucose + 10% FBS, 15.4 µM	123	124	57.2
RPMI 5 mM glucose + 10% FBS, 46.1 µM	102	100	46.3
RPMI 5 mM glucose + 10% dialyzed FBS, 0.000781 µM	–	107	122
RPMI 5 mM glucose + 10% dialyzed FBS, 0.00234 µM	–	114	74.4
RPMI 5 mM glucose + 10% dialyzed FBS, 0.00702 µM	–	113	108
RPMI 5 mM glucose + 10% dialyzed FBS, 0.0211 µM	–	120	105
RPMI 5 mM glucose + 10% dialyzed FBS, 0.0632 µM	–	117	106
RPMI 5 mM glucose + 10% dialyzed FBS, 0.19 µM	–	121	120
RPMI 5 mM glucose + 10% dialyzed FBS, 0.569 µM	–	128	103
RPMI 5 mM glucose + 10% dialyzed FBS, 1.71 µM	–	124	108
RPMI 5 mM glucose + 10% dialyzed FBS, 5.12 µM	–	121	71.3
RPMI 5 mM glucose + 10% dialyzed FBS, 15.4 µM	–	131	85.3
RPMI 5 mM glucose + 10% dialyzed FBS, 46.1 µM	–	105	50.7

OC[C@H]1O[C@H]([C@H](O)[C@@H]1O)N2\C=C/C(=O)NC2=O
AUC of viability dose-response curve
Settings	NOMO1 [3]	P12-Ichikawa [1]	SEM cells [2]
HPLM + 10% dialyzed FBS	448	473	463
RPMI 5 mM glucose + 10% FBS	429	456	447
RPMI 5 mM glucose + 10% dialyzed FBS	455	466	450

cell viability [%]
Settings	NOMO1 [6]	P12-Ichikawa [4]	SEM cells [5]
HPLM + 10% dialyzed FBS, 0.000781 µM	111	108	107
HPLM + 10% dialyzed FBS, 0.00234 µM	127	103	107
HPLM + 10% dialyzed FBS, 0.00702 µM	105	99.1	107
HPLM + 10% dialyzed FBS, 0.0211 µM	114	111	115
HPLM + 10% dialyzed FBS, 0.0632 µM	122	101	123
HPLM + 10% dialyzed FBS, 0.19 µM	107	104	124
HPLM + 10% dialyzed FBS, 0.569 µM	103	109	122
HPLM + 10% dialyzed FBS, 1.71 µM	119	103	103
HPLM + 10% dialyzed FBS, 5.12 µM	118	99.4	115
HPLM + 10% dialyzed FBS, 15.4 µM	95.4	110	92.7
HPLM + 10% dialyzed FBS, 46.1 µM	98.4	99.6	90.7
RPMI 5 mM glucose + 10% FBS, 0.000781 µM	89.4	104	96.8
RPMI 5 mM glucose + 10% FBS, 0.00234 µM	87.3	109	105
RPMI 5 mM glucose + 10% FBS, 0.00702 µM	95.6	103	102
RPMI 5 mM glucose + 10% FBS, 0.0211 µM	85.4	103	102
RPMI 5 mM glucose + 10% FBS, 0.0632 µM	94.7	97.6	107
RPMI 5 mM glucose + 10% FBS, 0.19 µM	96.5	104	91.9
RPMI 5 mM glucose + 10% FBS, 0.569 µM	94.6	117	114
RPMI 5 mM glucose + 10% FBS, 1.71 µM	91.4	95.3	78.3
RPMI 5 mM glucose + 10% FBS, 5.12 µM	79.4	107	93.2
RPMI 5 mM glucose + 10% FBS, 15.4 µM	91.6	96	78.3
RPMI 5 mM glucose + 10% FBS, 46.1 µM	80.8	90.8	86.1
RPMI 5 mM glucose + 10% dialyzed FBS, 0.000781 µM	93.9	101	101
RPMI 5 mM glucose + 10% dialyzed FBS, 0.00234 µM	85.1	89.1	110
RPMI 5 mM glucose + 10% dialyzed FBS, 0.00702 µM	99.8	95.9	103
RPMI 5 mM glucose + 10% dialyzed FBS, 0.0211 µM	99.3	101	106
RPMI 5 mM glucose + 10% dialyzed FBS, 0.0632 µM	95.7	102	92.8
RPMI 5 mM glucose + 10% dialyzed FBS, 0.19 µM	103	98.3	117
RPMI 5 mM glucose + 10% dialyzed FBS, 0.569 µM	104	109	108
RPMI 5 mM glucose + 10% dialyzed FBS, 1.71 µM	93.7	97.1	91
RPMI 5 mM glucose + 10% dialyzed FBS, 5.12 µM	96	96	105
RPMI 5 mM glucose + 10% dialyzed FBS, 15.4 µM	90.5	89.5	94.3
RPMI 5 mM glucose + 10% dialyzed FBS, 46.1 µM	87.8	92.4	88.3

OC(c1cc(C(F)(F)F)nc2c(C(F)(F)F)cccc12)C1CCCCN1 (stereo not drawn)
AUC of viability dose-response curve
Settings	NOMO1 [3]	P12-Ichikawa [1]	SEM cells [2]
HPLM + 10% dialyzed FBS	447	468	455
RPMI 5 mM glucose + 10% FBS	453	458	453
RPMI 5 mM glucose + 10% dialyzed FBS	452	473	455

cell viability [%]
Settings	HPLM + 10% dialyzed FBS	RPMI 5 mM glucose + 10% FBS	RPMI 5 mM glucose + 10% dialyzed FBS
NOMO1 [6], 0.000781 µM	117	–	–
NOMO1 [6], 0.00234 µM	124	–	–
NOMO1 [6], 0.00702 µM	115	–	–
NOMO1 [6], 0.0211 µM	127	–	–
NOMO1 [6], 0.0632 µM	146	–	–
NOMO1 [6], 0.19 µM	150	–	–
NOMO1 [6], 0.569 µM	158	–	–
NOMO1 [6], 1.71 µM	142	–	–
NOMO1 [6], 5.12 µM	143	–	–
NOMO1 [6], 15.4 µM	114	–	–
NOMO1 [6], 46.1 µM	8.46	–	–
SEM cells [5], 0.000781 µM	103	117	117
SEM cells [5], 0.00234 µM	115	118	130
SEM cells [5], 0.00702 µM	109	131	122
SEM cells [5], 0.0211 µM	116	149	136
SEM cells [5], 0.0632 µM	117	133	135
SEM cells [5], 0.19 µM	139	138	129
SEM cells [5], 0.569 µM	91.8	93.9	81.2
SEM cells [5], 1.71 µM	54.7	63.4	47.8
SEM cells [5], 5.12 µM	126	132	137
SEM cells [5], 15.4 µM	132	114	130
SEM cells [5], 46.1 µM	7.71	9.68	10.3
